In article PMC3755965, “A Small Peptide with Therapeutic Potential for Inflammatory Acne Vulgaris” (PLoS ONE, 2013):
Converted amounts (≈) assume the structure as drawn. Where a SMILES comes first, the peptide text is derived from it.

Tests used:
human red blood cells = details: up to 320 µg/ml, 37°C, 30 min, A540, relative to 1% Triton X-100, mean of five experiments
Protocol: Hemolysis assay was undertaken using human red blood cells in liquid medium as our previous reports. Serial dilutions of testing sample were incubated with human red cells at 37°C. After the incubation for 30 min, the cells were centrifuged and the absorbance in the supernatant was measured at 540 nm. Maximum hemolysis was determined by adding 1% Triton X-100 to a sample of cells. Hemolysis of testing samples was calculated as the percentage of cytotoxicity of Triton X-100.

S. aureus 09B2499 = details: LB broth, aerobic, 37°C, 24 or 48 h, A600; mean of three independent experiments in duplicates
[1] = tested on: P. acnes (IS, DR), clinically isolated strain with clindamycin resistance; details: clindamycin-resistant clinical isolate; BHI broth, anaerobic, 37°C, 72 h, A600; mean of three independent experiments in duplicates; ND = no detectable activity
Protocol: (§1) The strains of P. acnes were cultured in brain heart infusion (BHI) broth (HKM, Guangzhou, China) with 1% glucose at 37°C under an anaerobic atmosphere using MGC Anaeropack systems (Mitsubishi, Gas Chemical Co., Inc, Japan), respectively. […] S. epidermidis (09A3726 and 09B2490) and S. aureus (ATCC 2592) were grown in LB (Luria-Bertani) broth as our previous report.
(§2) Briefly, samples were prepared as a stock solution in 0.9% salt water at a series of concentration. 890 µl special broth (BHI broth for P. acnes, LB broth for S. epidermidis and S. aureus), 100 µl bacterial suspension (10^8 CFU/ml) and 10 µl test sample were put together in the test tube under anaerobic conditions at 37°C for 72 h for P. acnes and under aerobic conditions at 37°C for 24 or 48 h for S. epidermidis and S. aureus. An absorbance at 600 nm was measured by a microplate reader to estimate bacterial growth. The MIC was defined as the lowest concentration of test sample completely inhibiting microorganism’s growth.

S. epidermidis 09A3726 = details: LB broth, aerobic, 37°C, 24 or 48 h, A600; mean of three independent experiments in duplicates; ND = no detectable activity
Protocol: as §1, §2

P. acnes ATCC11827 = details: BHI broth, anaerobic, 37°C, 72 h, A600; mean of three independent experiments in duplicates; ND = no detectable activity
Protocol: as §1, §2

P. acnes ATCC6919 = details: BHI broth, anaerobic, 37°C, 72 h, A600; mean of three independent experiments in duplicates; ND = no detectable activity
Protocol: as §1, §2

S. epidermidis 09B2490 = details: LB broth, aerobic, 37°C, 24 or 48 h, A600; mean of three independent experiments in duplicates
Protocol: as §1, §2

[2] = Effect of human plasma on antibacterial activity (inhibition zone); format: in vitro ADME; details: 100 µM, 37°C, inhibition zone on P. acnes ATCC6919, S. epidermidis 09A3726, S. aureus 09B2499, three experiments
Protocol: LZ1 or human cathelicidin antimicrobial peptide LL-37 (control) was mixed with human plasma (final concentration 100 µM) for 0, 0.5, 1, 2, 4, 6 and 8 hours at 37°C, respectively. Residual antibacterial activity was evaluated by using 10 µl aliquot of the mixture to measure inhibitory zone on bacterial growth on BHI or LB broth containing 0.7% agar as previously described. The diameters of inhibition zones were recorded after 72-hour incubation for P. acnes and 24-hour incubation for S. epidermidis and S. aureus, respectively.

[3] = tested on: Human HaCaT keratinocyte cells; details: 20 to 200 µg/ml, 24-h treatment, MTT, A570, mean of five experiments
Protocol: Human HaCaT keratinocyte cells (1×10^5 cells/ml, obtained from Cell Bank of Kunming Institute of Zoology, Chinese Academy of Sciences) were cultured in 96-well plates with Dulbecco’s modified Eagle’s medium (DMEM, Gibco) containing 10% fetal calf serum and penicillin (100 u/ml)-streptomycin (100 mg/ml) at 37°C in a humidified 5% CO2 atmosphere. Cell viability was evaluated by conventional 3-(4, 5-dimethyl-2-thiazolyl)-2, 5-diphenyl-2H-tetrazolium bromide (MTT) reduction assays. After a 24-h treatment by testing sample, 20 µl of MTT (5 mg/ml) was added to each well. The MTT solution was then removed and 200 µl dimethyl sulfoxide (DMSO) was added to solubilize the MTT-formazan cristals in living cells. The absorbance at 570 nm of the resulting solution was measured. The experiments were performed in triplicate.

P. acnes (ATCC6919) = test: P. acnes colonization within mouse ear (CFU count); format: in vivo, Kunming mice; details: for P. acnes colonized within the ear: mean of four experiments
Protocol: As described previously, P. acnes (ATCC6919) was grown to the exponential-phase in BHI broth and then centrifuged at 1000 g for 10 min. The bacterium pellet was then washed twice and re-suspended in 0.9% salt water (5×10^8 CFU/ml). Kunming mice (20 ± 2 g) were anesthetised by intraperitoneal (IP) administration of ketamine (50 mg/kg) and xylazine (15 mg/kg), and then 20 µl P. acnes solution was intradermally injected into left ears of the mice. Right ears received the same volume of 0.9% salt water. Placebo or 0.2% LZ1 gel (Polyethylene Glycol (PEG) 400: PEG 4000, 1:1) was applied on the surface of right ear skin after injection with P. acnes or saline. […] Ear thickness after 24 h bacterial injection was measured using a micro caliper.
To determine P. acnes number in the ear, the left ear was cut off after 24 h bacterial injection and the mice were sacrificed immediately by cervical dislocation. The ears were wiped to remove gel and then homogenized in 0.9% salt water (1 ml per ear) with a hand tissue grinder. CFUs of P. acnes in the ear were enumerated by plating serial dilutions of the homogenate on BHI plates and the bacterial numbers were counted after 72 h incubation under anaerobic conditions at 37°C.
To further investigate the therapeutical effect, the increase in ear thickness and the P. acnes number in the ear after bacterial injection were determined continuously on day 2 to day 5 as described above. […] All the experimental protocols to use animals were approved by the Animal Care and Use Committee at Kunming Institute of Zoology, Chinese Academy of Sciences.

TNF-α = TNF-α in ear homogenate, ELISA; format: in vivo, Kunming mice; details: day 1 to day 5, epicutaneous 0.2% gel, in words
Protocol: (§3) Ears of Kunming mice were injected with live P. acnes (ATCC 6919) as described above. The ear was excised on day 1 to day 5 after bacterial injection respectively, and then homogenized in 0.9% salt water (1 ml per ear) with a hand tissue grinder. The supernatant was collected after the centrifugation at 2000 × g for 10 min and then was used for cytokine measurement. The concentration of TNF-α and IL-1β was measured by using enzyme-linked immunosorbent assay kits (Excell Bio, Shanghai, China).

[4] = tested on: infiltrated inflammatory cells; test: Histological check of mouse ears (HE stain); format: in vivo, Kunming mice; details: 24 h after P. acnes challenge, epicutaneous 0.2% gel, in words
From the text: Ears of Kunming mice were excised and fixed in neutral-buffered 10% formalin solution and embedded in paraffin by routine procedures. The slides were cut at approximately 4 µm and stained routinely with haematoxylin and eosin (HE). Images were obtained using a Nikon Eclipse 80i microscope (Nikon, Japan).

IL-1β = IL-1β in ear homogenate, ELISA; format: in vivo, Kunming mice
Protocol: as §3

[5] = tested on: P. acnes (ATCC6919)-induced ear swelling; test: P. acnes-induced ear swelling in mice; format: in vivo, Kunming mice; details: mean of four experiments

Molecule: CC(C)[C@H](N)C(=O)N[C@@H](CCCCN)C(=O)N[C@@H](CCCNC(=N)N)C(=O)N[C@@H](Cc1c[nH]c2ccccc12)C(=O)N[C@@H](CCCCN)C(=O)N[C@@H](CCCCN)C(=O)N[C@@H](Cc1c[nH]c2ccccc12)C(=O)N[C@@H](Cc1c[nH]c2ccccc12)C(=O)N[C@@H](CCCNC(=N)N)C(=O)N[C@@H](CCCCN)C(=O)N[C@@H](Cc1c[nH]c2ccccc12)C(=O)N[C@@H](CCCCN)C(=O)N[C@@H](CCCCN)C(=O)N[C@@H](Cc1c[nH]c2ccccc12)C(=O)N[C@H](C(N)=O)C(C)C [LZ1] (H-VKRWKKWWRKWKKWV-NH2)
- hemolytic activity (human red blood cells): no more than 5.2%
- MIC (S. aureus 09B2499): 2.3 mg/L (≈ 1.03 µM)
- MIC [1]: 0.6 mg/L (≈ 0.269 µM)
- MIC (S. epidermidis 09A3726): 4.7 mg/L (≈ 2.11 µM)
- MIC (P. acnes ATCC11827): 0.6 mg/L (≈ 0.269 µM)
- MIC (P. acnes ATCC6919): 0.6 mg/L (≈ 0.269 µM)
- MIC (S. epidermidis 09B2490): 2.3 mg/L (≈ 1.03 µM)
- antibacterial activity after incubation with human plasma ([2]; 8 hours): could not be significantly affected
- effects on cell viabilities (cytotoxicity) [3]: no more than 5.6%

Molecule: LL-37: human cathelicidin antimicrobial peptide LL-37 (control)
- antibacterial activity after incubation with human plasma ([2]; 1 hour): completely lost its antibacterial activity

Molecule: CCC[C@@H]1C[C@@H](C(=O)N[C@@H]([C@H]2O[C@H](SC)[C@H](OP(=O)(O)O)[C@@H](O)[C@H]2O)[C@H](C)Cl)N(C)C1 [clindamycin, clindamycin phosphate]
- P. acnes colonized within the ear (P. acnes (ATCC6919); Day 1, 0.2% gel epicutaneous): 360±77 10^3 CFU per ear
- P. acnes colonized within the ear (P. acnes (ATCC6919); Day 2, 0.2% gel epicutaneous once per day): 32±4.1 10^3 CFU per ear
- P. acnes colonized within the ear (P. acnes (ATCC6919); Day 3, 0.2% gel epicutaneous once per day): 14±1.7 10^3 CFU per ear
- P. acnes colonized within the ear (P. acnes (ATCC6919); Day 4, 0.2% gel epicutaneous once per day): 6±0.5 10^3 CFU per ear
- P. acnes colonized within the ear (P. acnes (ATCC6919); Day 5, 0.2% gel epicutaneous once per day): 1.5±0.1 10^3 CFU per ear
- reduction in the number of P. acnes colonized within the ear (P. acnes (ATCC6919); day 2, versus vehicle): 58.9%
- reduction in the number of P. acnes colonized within the ear (P. acnes (ATCC6919); day 3, versus vehicle): 58.8%
- reduction in the number of P. acnes colonized within the ear (P. acnes (ATCC6919); day 4, versus vehicle): 71.4%
- reduction in the number of P. acnes colonized within the ear (P. acnes (ATCC6919); day 5, versus vehicle): 50%
- effect on TNF-α secretion induced by P. acnes challenge (TNF-α): no inhibitory effect
- number of infiltrated inflammatory cells [4]: decreased infiltrated inflammatory cells
- IL-1β concentration in mouse ear (IL-1β; day 1, 1 ml saline per ear, vehicle 483, three experiments): 346 pg/mL
- IL-1β concentration in mouse ear (IL-1β; day 2, 1 ml saline per ear, vehicle 221, three experiments): 83 pg/mL
- IL-1β concentration in mouse ear (IL-1β; day 3, 1 ml saline per ear, vehicle 48, three experiments): 43 pg/mL
- IL-1β concentration in mouse ear (IL-1β; day 4, 1 ml saline per ear, vehicle 30, three experiments): 45 pg/mL
- IL-1β concentration in mouse ear (IL-1β; day 5, 1 ml saline per ear, vehicle 41, three experiments): 46 pg/mL
- ear thickness, % of the control (un-challenged) ([5]; day 1 after P. acnes injection, 0.2% gel epicutaneous): 147%
- ear thickness, % of the control (un-challenged) ([5]; day 2, 0.2% gel epicutaneous once per day): 145%
- ear thickness, % of the control (un-challenged) ([5]; day 3, 0.2% gel epicutaneous once per day): 130%
- ear thickness, % of the control (un-challenged) ([5]; day 4, 0.2% gel epicutaneous once per day): 125%
- ear thickness, % of the control (un-challenged) ([5]; day 5, 0.2% gel epicutaneous once per day): 105%
